These results are taken from ChEMBL document CHEMBL5576082, “Minor Cannabinoids as Inhibitors of Skin Inflammation: Chemical Synthesis and Biological Evaluation” (J Nat Prod, 2024).

Activity calls are given as the source filed them. The calls are words filed in the database; no cut-off is given here. Some results are limits rather than exact numbers.

Data set [1] has as its system HaCaT. The data set can be described thus: Antiinflammatory activity against human HaCaT cells assessed as inhibition of TNF-alpha-induced IL-8 protein expression at 5 uM after 6 hrs by ELISA relative to control. The format is functional.
The subject of data set [2] is HaCaT. As to the kind of experiment: Antiinflammatory activity against human HaCaT cells assessed as inhibition of TNF-alpha-induced IL-8 protein expression after 6 hrs by ELISA. The format is functional, cell-based. (In general: In an ELISA, binding on a coated surface is turned into a signal by an enzyme label.)
A short description of data set [3]: Inhibition of TNF-alpha-induced NFkappaB (unknown origin) transcription in human HaCaT cells transiently transfected with NFkappaB-LUC after 6 hrs by luminescence based spectrophotometric assay. The format is cell-based.
For data set [4], the system named is HaCaT. As to the kind of experiment: Cytotoxicity against human HaCaT cells assessed as reduction in cell viability at 5 uM after 24 hrs by MTT assay. The format is toxicity, cell-based. (In general: Tetrazolium dyes change colour on reduction, which living cells bring about.)
Data set [5] concerns HaCaT. The data set can be described thus: Inhibition of TNF-alpha-induced NFkappaB (unknown origin) transcription in human HaCaT cells transiently transfected with NFkappaB-LUC at 5 uM after 6 hrs by luminescence based spectrophotometric assay. The format is cell-based.

For `CCCCCc1cc(O)c(C/C=C(\C)CCC=C(C)C)c(O)c1` [CANNABIGEROL], the inhibition (usually the change of the read-out against control, counted positive when it falls) at 5 µM in data set [1] was approximately 40%. Also, the IC50 (as a rule, the concentration needed to halve the response being measured) is more than 5000 nM in data set [2] and 2510 nM in data set [3].

Turning to `CCCc1cc(O)c(C/C=C(\C)CCC=C(C)C)c(O)c1`, in data set [4], the Activity result is “Non-Toxic”. Moreover, the inhibition result in data set [1] is “inactive”. The inhibition result in data set [5] was “Active”.

On to `CCCCc1cc(O)c2c(c1)O[C@](C)(CCC=C(C)C)CC2`, for which the Activity entry in data set [4] is “Non-Toxic”. Further, the inhibition at 5 µM in data set [1] was 100%. The half-maximal inhibitory concentration (IC50) in data set [2] turned out to be 1060 nM; in data set [3] it was 3110 nM. The compound further came in with an inhibition in data set [5] of 100%.

`CCCCc1cc(O)c(C/C=C(\C)CCC=C(C)C)c(O)c1`: in data set [4], the Activity result was “Non-Toxic”. Also, the inhibition at 5 µM in data set [1] is 100%. For the same compound, the IC50 came to 820 nM in data set [2] and 2360 nM in data set [3]. Besides, the inhibition in data set [5] was found to be 100%.

Consider `C=C(C)[C@@H]1CCC(C)=C[C@H]1c1c(O)cc(CCCCC)cc1O`, for which the inhibition result in data set [1] is “inactive”.

Take `CCCc1cc2c3c(c1)O[C@@]1(C)CCC([C@@H]3C1)C(C)(C)O2` (some centres not stated): in data set [4], the Activity entry is “Non-Toxic”. Besides, the inhibition result in data set [1] and in data set [5] was “inactive” each time.

As for `CCCCc1cc2c(c(O)c1C(=O)OC)CC[C@@](C)(CCC=C(C)C)O2`, the Activity result in data set [4] is “Non-Toxic”. For the same compound, in data set [1], the inhibition at 5 µM came to 100%. Also, the figures for the IC50 in data set [2] and in data set [3] were 1580 nM and 4230 nM, respectively. The inhibition entry in data set [5] was “Active”.

Consider `CCCCc1cc(O)c(C/C=C(/C)CCC=C(C)C)c(O)c1`, for which, in data set [4], the Activity result is recorded as “Non-Toxic”. The inhibition at 5 µM in data set [1] is 100%. The IC50 in data set [2] was found to be 870 nM; in data set [3], 2800 nM. In data set [5], the inhibition stood at 100%.

As to `CCCCc1cc(O)c(C/C=C(\C)CCC=C(C)C)c(O)c1C(=O)OC`, the Activity entry in data set [4] is “Non-Toxic”. Also, in data set [1], the inhibition at 5 µM stood at 100%. The IC50 in data set [2] stood at 530 nM; in data set [3], 600 nM. In addition, the inhibition in data set [5] worked out at 100%.

For the compound `CCCc1cc(O)c(C/C=C(/C)CCC=C(C)C)c(O)c1`, the Activity entry in data set [4] is reported as “Non-Toxic”. Besides, the inhibition result in data set [1] was “inactive”. In data set [5], the inhibition entry is “Active”.

Take `CCCCc1cc2c3c(c1)O[C@@]1(C)CCC([C@@H]3C1)C(C)(C)O2` (some centres not stated): the Activity entry in data set [4] is listed as “Non-Toxic”. Moreover, the inhibition result in data set [1] and in data set [5] was “inactive” each time.

Consider `CCCc1cc(O)c2c(c1)O[C@](C)(CCC=C(C)C)CC2`, for which, in data set [4], the Activity entry is on record as “Non-Toxic”. Further, in data set [1], the inhibition entry was “inactive”. For the same compound, in data set [5], the inhibition result was “Active”.

`CCCCc1cc2c(c(O)c1C(=O)O)CC[C@@](C)(CCC=C(C)C)O2`: in data set [4], the Activity entry is “Non-Toxic”. Also, in data set [1], the inhibition entry was “inactive”. Moreover, the inhibition result in data set [5] is “Active”.
